From article PMC7224190, “Pharmacological inhibition of PRMT7 links arginine monomethylation to the cellular stress response” (Nature Communications, 2020) come the findings set out here.

The experiment concerns the target T1, PRMT4 (Homo sapiens, UniProt Q86X55).
T1 construct: gene CARM1
T1 sequence (Q86X55 1-608): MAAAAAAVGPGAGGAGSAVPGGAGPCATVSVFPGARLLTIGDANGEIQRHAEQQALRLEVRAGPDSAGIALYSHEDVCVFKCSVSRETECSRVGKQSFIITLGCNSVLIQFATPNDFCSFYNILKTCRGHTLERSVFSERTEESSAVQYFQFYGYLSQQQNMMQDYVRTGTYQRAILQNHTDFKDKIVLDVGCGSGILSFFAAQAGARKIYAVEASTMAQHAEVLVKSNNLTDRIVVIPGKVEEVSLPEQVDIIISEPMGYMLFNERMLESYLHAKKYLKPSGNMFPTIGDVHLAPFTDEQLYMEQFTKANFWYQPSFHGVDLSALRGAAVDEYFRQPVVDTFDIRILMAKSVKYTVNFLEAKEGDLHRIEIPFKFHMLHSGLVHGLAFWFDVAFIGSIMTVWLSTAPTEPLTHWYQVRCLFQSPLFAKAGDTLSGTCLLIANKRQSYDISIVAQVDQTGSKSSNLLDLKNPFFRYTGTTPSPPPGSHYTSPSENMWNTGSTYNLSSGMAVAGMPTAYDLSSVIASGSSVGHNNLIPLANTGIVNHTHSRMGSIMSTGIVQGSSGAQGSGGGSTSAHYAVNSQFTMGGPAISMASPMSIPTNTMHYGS
In words: biochemical. On the set-up: radiometric methyltransferase assay with tritiated SAM, IC50. On the procedure:
The methyltransferase selectivity was assessed at two compound concentrations of 1 and 10 μM by radiometric assays using tritiated-SAM. For methyltransferases: MLL1, MLL3, EZH1 (PRC2), and EZH2 (PRC2), G9a, GLP, SUV39H1, SUV39H2, SUV420H1, SUV420H2, SETD2, SETD8, SETDB1, SETD7, PRMT1, PRMT3, PRMT4, PRMT5/ MEP50 complex, PRMT6, PRMT7, PRMT8, PRMT9, PRDM9, SMYD2, SMYD3, DNMT1, and BCDIN3D the incorporation of a tritium-labeled methyl group into biotinylated substrate was monitored using scintillation proximity assay (SPA). Briefly, a 10 μL reaction containing ^3H-SAM and substrate at concentrations close to the apparent Km values for each enzyme (balanced conditions) was prepared. The reactions were quenched with 10 μL of 7.5 M guanidine hydrochloride; 180 μL of 20 mM Tris buffer (pH 8.0) were added, and the mixture was transferred to a 96-well FlashPlate and incubated for 1 h. The counts per minute (CPM) was measured on a TopCount plate reader. The CPM in the absence of compound or enzyme was defined as 100% activity and background (0%), respectively, for each dataset[74]–[76]. Selectivity of SGC8158 against 342 kinases was evaluated in a kinase panel TR-FRET assay at 1 and 0.1 μM compound in duplicates as described before. Briefly, tagged kinases were incubated with compound and staurosporine-based fluorescent probe where the binding was detected using Tb conjugated anti-tag antibody energy transfer to the probe. Excitation wavelength was 337 nm and fluorescent emission signal was measured for Tb (486 nm) and fluorescent probe (BODIPY, 515 nm). Specific and non-specific binding was determined in the absence and presence of unlabeled staurosporine. Assays using biotinylated H2B (23–37) as a substrate were performed in buffer (20 mM Tris–HCl, pH 8.5, 0.01% Tween-20, and 5 mM DTT) containing 5 nM PRMT7, 1.1 µM ^3H-SAM (Cat.# NET155V250UC; Perkin Elmer; www.perkinelmer.com) and 0.3 µM H2B (23–37). The reaction mixtures were incubated for 60 min at 23 °C. To stop the enzymatic reactions, 10 µL of 7.5 M guanidine hydrochloride was added, followed by 180 µL of buffer (20 mM Tris, pH 8.0), mixed and then transferred to a 96-well FlashPlate (Cat.# SMP103; Perkin Elmer; www.perkinelmer.com). After mixing, the reaction mixtures in Flash plates were incubated for 1 h and the CPM were measured using Topcount plate reader (Perkin Elmer, www.perkinelmer.com). The CPM counts in the absence of compound for each dataset were defined as 100% activity. In the absence of the enzyme, the CPM counts in each dataset were defined as background (0%). The IC50 values were determined using GraphPad Prism 7 software. For the kinetic analysis of HSPA8 methylation by PRMT7, the assay mixture contained 20 mM Tris–HCl, pH 8.5, 0.01% Tween-20, and 5 mM dithiothreitol (DTT), 1 mM MgCl2, 1 mM ATP where indicated, 250 nM PRMT7, fixed concentration (20 µM) of SAM, various concentrations (up to 40 µM) of HSPA8; or fixed concentration (10 µM) of HSPA8 with different concentrations of SAM (up to 20 µM). […] To determine the mode of action, the experiments were performed in the presence of fixed biotinylated H2B peptide (residues 23–37) or HSPA8 substrate concentration and increasing SAM concentration or at fixed concentration of SAM and varying concentration of the substrate. Twenty µL of reaction mixtures were incubated at 23 °C for 60 min. To stop reactions, 100 µL of 10% trichloroacetic acid (TCA) was added, mixed and transferred to filter-plates (Millipore; cat.# MSFBN6B10; www.millipore.com). Plates were centrifuged at 930 × g (Allegra X-15R—Beckman Coulter, Inc.) for 2 min followed by two additional 10% TCA washes and one ethanol wash followed by centrifugation. Plates were dried and 30 µL MicroScint-O (

In general, IC50 refers to the point on the concentration scale where inhibition reaches its midpoint. Turning to `Nc1ncnc2c1ncn2[C@@H]1O[C@H](CSCCCNCc2cccc(-c3ccc(Cl)cc3)c2)[C@@H](O)[C@H]1O` [SGC8172], the IC50 was 3.6 nM.
